The values below come from patent publication US20260028354A1, “TETRAHYDRONAPHTHALENE DERIVATIVES AS ESTROGEN RECEPTOR DEGRADERS” (REGENT OF THE UNIVERSITY OF MICHIGAN, priority 2022, published 2026).

Type in all cases: cell-based
Test [1] can be described thus: Western blot analysis for "B" compounds. Particulars: read-out: Traditional Western Degradation Potency (DC50). Here is the method:
Western Blot Analysis. Western blot analysis was performed essentially as described previously. The cells treated with indicated compounds were lysed in Radioimmunoprecipitation Assay Protein Lysis and Extraction Buffer (25 mmol/I. Tris.HCl, pH 7.6, 150 mmol/L, NaCl, 1% Nonidet P-40, 1% sodium deoxycholate, and 0.1% sodium dodecyl sulfate) containing proteinase inhibitor cocktail (Roche Diagnostics, Mannheim, Germany). Equal amounts of total protein were electrophoresed through 10% SDS-polyacrylamide gels after determination of protein concentration by BCA assay (Fisher Scientific, Pittsburgh, PA), The separated protein bands were transferred onto PVDF membranes (GE Healthcare Life Sciences, Marlborough, MA) and blotted against different antibodies, as indicated. The blots were scanned, and the band intensities were quantified using GelQuant.NET software provided by biochemlabsolutions.com. The relative mean intensity of target proteins was expressed after normalization to the intensity of glyceraldehyde-3-phosphate dehydrogenase bands.

The next test addresses ER in T47D cells (Homo sapiens (Human), UniProt P03372). Briefly: In-cell Western (ICW) ER degradation assay in T47D cells. Particulars: for DC50: ER degradation. The text has this:
(§1) In-cell Western (ICW) assays in MCF-7 and T47D cell lines.
(§2) Day 3: After 16 hrs of compounds treatment, cells were fixed by 4% PFA and permeabilized with elution buffer (0.1% Triton X-100 in 1% PBS Solution). Subsequently, cells were blocked with Intercept (PBS) Blocking Buffer (Li-COR, Odyssey Blocking Buffer), and were stained with ER (1:500, Cell signaling) primary antibody for overnight at cold room.
(§3) Day 4: Remove the buffer, add IRDye 800CW Goat anti-Rabbit IgG Secondary Antibody (1:2000) and CellTag 700 Stain (1:500) in Intercept (PBS) Blocking Buffer. Finally, cell plate is placed in incubator to dry. Image and signal were captured on Odyssey® DLx Imaging System.

A further test addresses ER in MCF-7 cells (Homo sapiens (Human), UniProt P03372). Briefly: In-cell Western (ICW) ER degradation assay in MCF-7 cells. Particulars: for DC50: MCF-7, ER degradation, read-out: MCF7 DC50.
Excerpt: as §1, §2, §3

[2] abbreviates: read-out: T47D Dmax, T47D, maximal ER degradation, 16 hrs treatment.
The mark [3] stands for this setting: MCF7, read-out: MCF7 Dmax, MCF-7, maximal ER degradation, 16 hrs treatment.
[4] abbreviates: maximal ER degradation, 16 hrs treatment, read-out: T47D Dmax.
[5] abbreviates: MCF7, MCF-7, maximal ER degradation, 16 hrs treatment, read-out: MCF7 Dmax.

The structures appear in SMILES notation. Where a name gives a salt, the structure may show the parent alone. Read-outs that look alike come from different tables or passages of the source.

Sequence of ER in T47D cells (P03372 whole entry): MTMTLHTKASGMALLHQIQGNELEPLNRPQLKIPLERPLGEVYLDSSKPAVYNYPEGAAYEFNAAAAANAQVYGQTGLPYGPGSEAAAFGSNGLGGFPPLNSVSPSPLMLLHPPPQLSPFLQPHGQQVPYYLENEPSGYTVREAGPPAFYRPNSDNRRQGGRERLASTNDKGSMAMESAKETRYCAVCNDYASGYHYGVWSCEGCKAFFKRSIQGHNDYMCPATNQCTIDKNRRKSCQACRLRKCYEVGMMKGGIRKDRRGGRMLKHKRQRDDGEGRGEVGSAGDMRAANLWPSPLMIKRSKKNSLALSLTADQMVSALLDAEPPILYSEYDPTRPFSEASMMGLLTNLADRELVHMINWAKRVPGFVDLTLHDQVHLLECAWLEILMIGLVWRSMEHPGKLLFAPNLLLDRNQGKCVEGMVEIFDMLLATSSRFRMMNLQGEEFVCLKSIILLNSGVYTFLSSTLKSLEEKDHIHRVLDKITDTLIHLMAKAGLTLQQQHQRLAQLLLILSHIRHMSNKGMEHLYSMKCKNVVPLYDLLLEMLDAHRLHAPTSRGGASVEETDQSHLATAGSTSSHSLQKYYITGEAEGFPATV
Sequence of ER in MCF-7 cells (P03372 whole entry): as above

For `O=C1CCC(N2C(=O)c3cc4c(cc3C2=O)CN(CC(=O)N2CCC(Oc3ccc([C@@H]5c6ccc(O)cc6CC[C@@H]5c5ccccc5)cc3)CC2)C4)C(=O)N1` (stereo partly drawn) [Compound B60, 2-(2,6-dioxopiperidin-3-yl)-6-(2-(4-(4-((1R,2S)-6-hydroxy-2-phenyl-1,2,3,4-tetrahydronaphthalen-1-yl)phenoxy)piperidin-1-yl)-2-oxoethyl)-6,7-dihydropyrrolo[3,4-f]isoindole-1,3(2H,5H)-dione], in test [1], the DC50 is above 0.1 µM.

For the molecule `O=C1CCC(N2Cc3cc4c(cc3C2=O)CN(CC(=O)N2CCC3(CC2)CN(c2ccc([C@@H]5c6ccc(O)cc6CC[C@@H]5c5ccccc5)cc2)C3)C4)C(=O)N1` (mixture of isomers) [Compound B183, 3-(6-(2-(2-(4-((1R,2S)-6-hydroxy-2-phenyl-1,2,3,4-tetrahydronaphthalen-1-yl)phenyl)-2,7-diazaspiro[3.5]nonan-7-yl)-2-oxoethyl)-1-oxo-3,5,6,7-tetrahydropyrrolo[3,4-f]isoindol-2(1H)-yl)piperidine-2,6-dione], the DC50 in test [1] was below 0.01 µM.

Regarding `O=C1CCC(N2Cc3cc4c(cc3C2=O)CN(CC(=O)N2CCC3(CCN(c5ccc([C@@H]6c7ccc(O)cc7CC[C@@H]6c6ccccc6)cc5)CC3)C2)C4)C(=O)N1` (mixture of isomers) [Compound B182, 3-(6-(2-(8-(4-((1R,2S)-6-hydroxy-2-phenyl-1,2,3,4-tetrahydronaphthalen-1-yl)phenyl)-2,8-diazaspiro[4.5]decan-2-yl)-2-oxoethyl)-1-oxo-3,5,6,7-tetrahydropyrrolo[3,4-f]isoindol-2(1H)-yl)piperidine-2,6-dione], in test [1], the DC50 lay in the range of 0.01 to 0.1 µM.

Regarding `O=C1CCC(N2C(=O)c3cc4c(cc3C2=O)CN(C[C@H]2CC[C@H](C(=O)N3CC(Oc5ccc([C@@H]6c7ccc(O)cc7CC[C@@H]6c6ccccc6)cc5)C3)CC2)C4)C(=O)N1` (stereo partly drawn) [Compound B293, 2-(2,6-dioxopiperidin-3-yl)-6-(((1R,4r)-4-(3-(4-((1R,2S)-6-hydroxy-2-phenyl-1,2,3,4-tetrahydronaphthalen-1-yl)phenoxy)azetidine-1-carbonyl)cyclohexyl)methyl)-6,7-dihydropyrrolo[3,4-f]isoindole-1,3(2H,5H)-dione], the DC50 in test [1] was in the range of 0.01 to 0.1 µM.

With `O=C1CCC(N2C(=O)c3cc4c(cc3C2=O)CN(C2CCN(CC3(F)CN(c5ccc([C@@H]6c7ccc(O)cc7CC[C@@H]6c6ccccc6)cc5)C3)CC2)C4)C(=O)N1` (stereo partly drawn) [Compound B73, 2-(2,6-dioxopiperidin-3-yl)-6-(1-((3-fluoro-1-(4-((1R,2S)-6-hydroxy-2-phenyl-1,2,3,4-tetrahydronaphthalen-1-yl)phenyl)azetidin-3-yl)methyl)piperidin-4-yl)-6,7-dihydropyrrolo[3,4-f]isoindole-1,3(2H,5H)-dione], in test [1], the DC50 was above 0.1 µM.

For the molecule `O=C1CCC(N2C(=O)c3cc4c(cc3C2=O)CN(CC(=O)N2CCC3(CC2)CCN(c2ccc([C@@H]5c6ccc7[nH]ncc7c6CC[C@@H]5c5ccccc5)cc2)CC3)C4)C(=O)N1` (stereo partly drawn) [Compound B139, 2-(2,6-dioxopiperidin-3-yl)-6-(2-oxo-2-(9-(4-((6R,7S)-7-phenyl-6,7,8,9-tetrahydro-3H-benzo[e]indazol-6-yl)phenyl)-3,9-diazaspiro[5.5]undecan-3-yl)ethyl)-6,7-dihydropyrrolo[3,4-f]isoindole-1,3(2H,5H)-dione], the DC50 in test [1] was 0.01 to 0.1 µM.

As for `O=C1CC[C@H](N2Cc3cc4c(cc3C2=O)OCC42CCN(C[C@H]3COC4(CCN(c5ccc([C@H]6c7ccc(O)cc7CC[C@H]6c6ccccc6)cc5)CC4)C3)CC2)C(=O)N1` [Compound A22, (S)-3-(1′-(((S)-8-(4-((1S,2R)-6-hydroxy-2-phenyl-1,2,3,4-tetrahydronaphthalen-1-yl)-phenyl)-1-oxa-8-azaspiro[4.5]decan-3-yl)methyl)-7-oxo-5,7-dihydro-2H,6H-spiro[furo[2,3-f]isoindolc-3,4′-pipcridin]-6-yl)pipcridinc-2,6-dione], the DC50 on ER in T47D cells (16 hrs treatment) and on ER in MCF-7 cells (16 hrs treatment) was below 0.001 µM in each case. Moreover, the results for the Dmax at ER in T47D cells (setting [2]) and on ER in MCF-7 cells (setting [3]) were 25 to 50% and 50 to 75%, respectively.

As for `O=C1CC[C@H](N2Cc3c(ccc4c3OC[C@H]3CN(CC5CCC6(CC5)CN(c5ccc([C@@H]7c8ccc(O)cc8CC[C@@H]7c7ccccc7)cn5)C6)CCN43)C2=O)C(=O)N1` (single isomer, unassigned) [Compound A123, (S)-3-((R)-7-((2-(5-((1S,2S)-6-hydroxy-2-phenyl-1,2,3,4-tetrahydronaphthalen-1-yl)pyridin-2-yl)-2-azaspiro[3.5]nonan-7-yl)methyl)-1-oxo-1,3,5,5a,6,7,8,9-octahydro-2H-pyrazino[1′,2′: 4,5][1,4]oxazino[2,3-e]isoindol-2-yl)piperidine-2,6-dione], the DC50 at ER in T47D cells (16 hrs treatment) and at ER in MCF-7 cells (16 hrs treatment) was below 0.001 µM throughout.

As for `COc1cc(N2CCC3(CC2)CC(CN2CCC(c4ccc(N[C@H]5CCC(=O)NC5=O)cc4F)CC2)C3)ccc1[C@@H]1c2ccc(O)cc2CC[C@@H]1c1ccccc1` (single isomer, unassigned) [Compound A105], the DC50 was 0.001 to 0.01 µM at ER in T47D cells (16 hrs treatment) and below 0.001 µM on ER in MCF-7 cells (16 hrs treatment). Moreover, the Dmax at ER in T47D cells (setting [4]) and at ER in MCF-7 cells (setting [5]) was 50 to 75% throughout.

Regarding `COc1cc(N2CCC3(CC2)CC(CN2CCC(c4ccc(N[C@@H]5CCC(=O)NC5=O)cc4)CC2)C3)ccc1[C@@H]1c2ccc(O)cc2CC[C@@H]1c1ccccc1` (single isomer, unassigned) [Compound A110], the DC50 on ER in T47D cells (16 hrs treatment) and on ER in MCF-7 cells (16 hrs treatment) was below 0.001 µM each time. Also, the Dmax on ER in T47D cells (setting [4]) and at ER in MCF-7 cells (setting [5]) was 50 to 75% throughout.

Turning to `O=C1CC[C@H](N2Cc3cc4c(cc3C2=O)OCC42CCN(C[C@@H]3COC4(CCN(c5ccc([C@@H]6c7ccc(O)cc7CC[C@@H]6c6ccccc6)cc5)CC4)C3)CC2)C(=O)N1` [Compound A26, (3S)-3-(1′-((8-(4-((1R,2S)-6-hydroxy-2-phenyl-1,2,3,4-tetrahydronaphthalen-1-yl)-phenyl)-1-oxa-8-azaspiro[4.5]decan-3-yl)methyl)-7-oxo-5,7-dihydro-2H,6H-spiro[furo[2,3-f]isoindole-3,4′-piperidin]-6-yl)piperidine-2,6-dione], the DC50 on ER in T47D cells (16 hrs treatment) and on ER in MCF-7 cells (16 hrs treatment) was 0.01 to 0.1 µM each time. For the same molecule, the “T47D Dmax” value on ER in T47D cells (maximal ER degradation, 16 hrs treatment) is on record as “C (“C”: 25-50%)”. The “MCF7 Dmax” value on ER in MCF-7 cells (MCF-7, maximal ER degradation, 16 hrs treatment) was “C (“C”: 25-50%)”.

Take `COc1cc(N2CCC3(CC2)CC(CN2CCC(c4ccc(N[C@H]5CCC(=O)NC5=O)cc4)CC2)C3)ccc1[C@@H]1c2ccc(O)cc2CC[C@@H]1c1ccccc1` (single isomer, unassigned) [Compound A96]: the DC50 on ER in T47D cells (16 hrs treatment) and on ER in MCF-7 cells (16 hrs treatment) was below 0.001 µM throughout. The Dmax at ER in T47D cells (setting [4]) and at ER in MCF-7 cells (setting [5]) was 50 to 75% each time.

As for `COc1cc(N2CCC(CN3CCC(c4ccc(N[C@@H]5CCC(=O)NC5=O)cc4)CC3)CC2)ccc1[C@@H]1c2ccc(O)cc2CC[C@@H]1c1ccccc1` (single isomer, unassigned) [Compound A87], the DC50 on ER in T47D cells (16 hrs treatment) and on ER in MCF-7 cells (16 hrs treatment) was below 0.001 µM throughout. In addition, the Dmax on ER in T47D cells (setting [4]) and on ER in MCF-7 cells (setting [5]) was 25 to 50% in each case.

Take `COc1cc(N2CCC(CN3CCC(c4ccc(N[C@H]5CCC(=O)NC5=O)cc4)CC3)CC2)ccc1[C@@H]1c2ccc(O)cc2CC[C@@H]1c1ccccc1` (single isomer, unassigned) [Compound A86]: the DC50 lay within 0.01 to 0.1 µM on ER in T47D cells (16 hrs treatment) and 0.001 to 0.01 µM on ER in MCF-7 cells (16 hrs treatment). Also, the Dmax at ER in T47D cells (setting [4]) is 25 to 50%; at ER in MCF-7 cells (setting [5]), below 25%.

Consider `COc1cc(N2CCC(CN3CCC4(CC3)COc3cc5c(cc34)CN([C@H]3CCC(=O)NC3=O)C5=O)CC2)c(F)cc1[C@@H]1c2ccc(O)cc2CC[C@@H]1c1ccccc1` [Compound A122, (S)-3-(1′-((1-(2-fluoro-4-((1S,2S)-6-hydroxy-2-phenyl-1,2,3,4-tetrahydronaphthalen-1-yl)-5-methoxyphenyl)piperidin-4-yl)methyl)-7-oxo-5,7-dihydro-2H,6H-spiro[furo[2,3-f]isoindole-3,4′-piperidin]-6-yl)piperidine-2,6-dione], for which the DC50 on ER in T47D cells (16 hrs treatment) and on ER in MCF-7 cells (16 hrs treatment) was below 0.001 µM each time. For the same molecule, the Dmax on ER in T47D cells (setting [2]) and on ER in MCF-7 cells (setting [3]) was 50 to 75% in each case.

As for `COc1cc(N2CCC(CN3CCC(c4ccc(N[C@@H]5CCC(=O)NC5=O)cc4F)CC3)CC2)ccc1[C@H]1c2ccc(O)cc2CC[C@H]1c1ccccc1` (stereo in doubt) [Compound A84, (R)-3-((3-fluoro-4-(1-((1-(4-((1R,2R)-6-hydroxy-2-phenyl-1,2,3,4-tetrahydronaphthalen-1-yl)-3-methoxyphenyl)piperidin-4-yl)methyl)piperidin-4-yl)-phenyl)amino)piperidine-2,6-dione formate], the results for the DC50 at ER in T47D cells (16 hrs treatment) and at ER in MCF-7 cells (16 hrs treatment) were 0.01 to 0.1 µM and below 0.001 µM, respectively. Moreover, the Dmax at ER in T47D cells (setting [4]) is 25 to 50%; at ER in MCF-7 cells (setting [5]), below 25%.
